From patent US10548935B2, “Composition and method for preventing, reducing, alleviating or treating idiopathic vomiting” (Mars, Incorporated, priority 2013, dated 2020)

How the values were obtained:
NK-1 receptor = molecular target: T1, NK-1 receptor (Homo sapiens, UniProt P25103); test: Tango GPCR cell-based assay, TACR1-bla U2OS cells, NK-1 receptor inhibitors; settings: 1 nM SAR9 Substance P agonist
T1 construct: host or cells: U2OS (Tango TACR1-bla)
Description: Various known high through-put screening assays can also be used to determine the inhibitory effects of a material on the NK-1 receptors.
One exemplary assay is the Tango™ G-Protein Coupled Receptors (GPCR) cell-based assays by Invitrogen. First, TACR1-bla U2OS cells (from Invitrogen) are cultured in McCoy's medium. The cultured cells are then plated in DMEM into 96-well plates (15,125 cells/well in 90 uL/well). After 16-24 hours, the cells are treated with test materials or positive control antagonist (which is 100 nM Aprepitant) and then incubated for 30-60 minutes at 37° C. in 5% CO2. Subsequently, the cells are treated with 1 nM SAR9 Substance P agonist and incubated again for 5 hours at 37° C. in 5% CO2. The plates are removed from the incubator and equilibrated at room temperature for 15 minutes. During the equilibration step, the LiveBlazer substrate detection solution (from Invitrogen) is prepared. Six times of substrate mixture is added to each well, followed by incubating the plates in the dark at room temp for 2 hours. The plates are read by the Envision microplate reader in 2 channels using the “Geneblazer 451” protocol, which include a blue channel (Excitement at 405 and Emission at 460) and a green channel (Excitement at 405 and Emission at 535).
FIGS. 45-70 show the NK-1 dosage response curves of compounds described hereinabove with high NK-1 inhibitory effect.

h5HT3A receptor = molecular target: T2, h5HT3A receptor (Homo sapiens, UniProt P46098); test: Assays for screening 5-HT3a receptor inhibitors (FLIPR calcium assay or aequorin-assisted serotonin receptor assay; dosage response curves); assay type: cell-based
T2 construct: expressed in transfected cells
T2 sequence (P46098 24-478): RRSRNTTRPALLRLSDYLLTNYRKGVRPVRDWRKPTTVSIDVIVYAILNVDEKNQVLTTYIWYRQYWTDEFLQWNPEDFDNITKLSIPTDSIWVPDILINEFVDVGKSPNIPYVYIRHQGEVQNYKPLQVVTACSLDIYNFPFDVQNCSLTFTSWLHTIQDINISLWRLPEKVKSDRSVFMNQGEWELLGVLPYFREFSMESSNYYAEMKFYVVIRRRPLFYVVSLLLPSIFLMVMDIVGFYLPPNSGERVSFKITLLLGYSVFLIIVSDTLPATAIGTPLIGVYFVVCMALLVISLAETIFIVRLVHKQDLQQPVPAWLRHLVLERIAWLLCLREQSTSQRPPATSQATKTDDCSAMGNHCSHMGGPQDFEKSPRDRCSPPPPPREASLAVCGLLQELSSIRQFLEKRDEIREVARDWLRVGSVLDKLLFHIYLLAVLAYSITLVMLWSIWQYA
Excerpt: Various known high through-put screening assays can be used to determine the inhibitory effects of a material on the 5-HT3a receptors.
Due to activation of 5HT3 receptor following calcium and sodium influx and the subsequent rapid intracellular calcium and sodium increase, a calcium indicator (e.g., Fluo-4 AM) or a sodium dye can therefore be readily used to detect influx Ca^+2 or Na^+ signal using the Flourometric Imaging Plate Reader (FLIPR) assay to identify agonists or antagonists of 5-HT3a receptors.
The 5-HT3a FLIPR assay can specifically be conducted by the following steps. First, […] (human embryonic kidney) cells stably expressed with h5HT3A receptor are grown in 16-18 ml growth medium in a 75 cm^2 flask for 2-3 days at 37° C. in a mammalian cell culture incubator with 5% CO2 and 90% humidity. The growth medium may contain, for example, DMEM/F12 (1:1, Invitrogen 11039) supplemented with 10% FBS (fetal bovine serum), 100 μg/ml Antibiotic/Antimycotic, and 150 ug/ml G418. The cell medium is then transferred to a 50 ml tube, and the cells are washed with 10 ml PBS. Subsequently, 2 ml of 0.05% Trypsin-EDTA is added to detach cells, and the above cell medium is added back to flask to inactivate trypsin. Next, the cells are transferred back to the above 50 ml tube, which is centrifuged at 850 rpm for 3 minutes to remove medium. The cells obtained from centrifugation are then re-suspended with growth medium at 1-1.5 ml per flask cells. One vial of Fluo-4 AM (calcium indicator, 50 ug) is subsequently dissolved with 20 ul of Pluronic F-127, and 10 ul of Fluo-4 AM solution per flask cells is added (1 vial of Fluo-4 AM solution, 20 ul, is good for 2 flask of cells). The cells are then stained with Fluo-4 AM for 30 min at room temperature with gently shaking on a shaker, followed by addition of 45 ml of the assay buffer [HBSS with CaCl2 and MgCl2 (Invitrogen 14025), 20 mM HEPES, pH7.2] to wash cells once. Centrifugation is carried out once more at 850 rpm for 3 minutes to remove assay buffer. The resulting cell pellet is again re-suspended in Assay buffer (per flask cells with 18-20 ml assay buffer). Ninety microliters of cells (50K cells/well) is loaded in the 96-well plates that are pre-loaded with the compounds to be tested (10 ul of 1 mM test materials, the final concentration of the test materials will be 100 uM). The plates are placed at room temperature for 15-30 min in dark and then transferred to FLIPR-384 instrument (Molecular Devices). […] The calcium signal of the test plates is finally recorded by the FLIPR program. The average and standard deviations are calculated using Excel, and the background (buffer) is subtracted. The percentage (%) inhibition is then calculated as
[formula] A test material will be considered as having an inhibitory effect against the 5-HT3a receptor if the percentage inhibition calculated is greater than 40%.
Aequorin is a photo-protein originating from the Jellyfish Aequorea Victoria. It is initially translated as an apo-enzyme requiring the hydrophobic group coelenterazine to initiate the conversion to aequorin. Upon binding of calcium, the coelenterazine is oxidized by aequorin into coelenteramide (BFP) resulting in the emission of blue light and CO2. Therefore, it is particularly useful for visualizing or detecting influx Ca^+2 signal.
After 18-24 h of culture, the cells are detached gently by flushing with their cell culture medium. Washing with an additional 10 mLs of cell culture media will ensure that optimum number of cells is captured. The cells are then centrifuged at 150×g, counted and re-suspended at 1×10^6 cells/mL in BSA medium [DMEM/Ham's F12 (with 15 mM HEPES, L-glutamine, without phenol red) culture medium (Invitrogen, Cat. No. 11039-021)+10% protease-free BSA (Sigma Aldrich, Cat. No. A9205) in H2O with a final BSA concentration of 0.1%] in a Falcon tube. Coelenterazine is added at a final concentration of 5 μM in assay medium.

T1 sequence (P25103 whole entry): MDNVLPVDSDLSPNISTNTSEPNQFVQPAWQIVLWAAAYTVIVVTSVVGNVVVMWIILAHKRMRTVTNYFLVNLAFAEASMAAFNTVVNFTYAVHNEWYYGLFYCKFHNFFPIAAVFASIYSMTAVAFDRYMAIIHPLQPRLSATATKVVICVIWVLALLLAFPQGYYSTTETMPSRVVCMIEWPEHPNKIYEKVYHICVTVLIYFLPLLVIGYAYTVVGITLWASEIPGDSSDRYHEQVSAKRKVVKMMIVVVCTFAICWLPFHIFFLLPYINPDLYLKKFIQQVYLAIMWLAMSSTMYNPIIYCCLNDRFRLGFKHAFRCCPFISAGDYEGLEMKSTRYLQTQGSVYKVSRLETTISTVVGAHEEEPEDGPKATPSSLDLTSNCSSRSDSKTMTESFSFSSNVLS

Structure (SMILES) | NK-1 receptor inhibitory effect (NK-1 receptor) | 5-HT3a receptor inhibitory effect (h5HT3A receptor) | cell toxicity (Cell toxicity)
O=C(/C=C/c1ccc(O)cc1)c1ccccc1 [4-Hydroxychalcone] | surprisingly high | surprisingly high | little or no
C[C@H]1[C@H](C)CC[C@]2(C(=O)O)CC[C@]3(C)C(=CC[C@@H]4[C@@]5(C)C[C@@H](O)[C@H](O)[C@@](C)(CO)[C@@H]5CC[C@]43C)[C@H]12 [Asiatic acid] | surprisingly high | surprisingly high | little or no
O=C(/C=C/c1ccccc1O)c1ccc(O)cc1O [2,2′,4′-trihydroxy-chalcone] | surprisingly high | – | little or no
CC1(C)[C@@H](O)CC[C@]2(C)[C@H]3C(=O)C=C4[C@@H]5C[C@@](C)(C(=O)O)CC[C@]5(C)CC[C@@]4(C)[C@]3(C)CC[C@@H]12 [18-Beta-glycyrrhetic acid] | surprisingly high | surprisingly high | little or no
O=c1c(O)c(-c2ccccc2)oc2ccc(O)cc12 [3,6-Dihydroxyflavone] | surprisingly high | surprisingly high | little or no
O=c1cc(-c2ccc(O)cc2)oc2cc(O)cc(O)c12 [Apigenin] | surprisingly high | – | little or no
c1ccc2c(Cc3c[nH]c4ccccc34)c[nH]c2c1 [3,3′-diindolylmethane] | surprisingly high | – | little or no
COC1=C(OC)C(=O)C(C)=CC1=O [Ubiquinone-O] | surprisingly high | surprisingly high | little or no

Now from value to compound, other results behind:

NK-1 receptor inhibitory effect (NK-1 receptor) | 5-HT3a receptor inhibitory effect (h5HT3A receptor) | Structure (SMILES) | cell toxicity (Cell toxicity)
surprisingly high | surprisingly high | O=c1cc(-c2ccc(O)c(O)c2)oc2cc(O)cc(O)c12 [Luteolin] | little or no
surprisingly high | – | O=C(/C=C/c1ccccc1)c1ccccc1 [Chalcone] | little or no
surprisingly high | – | O=c1c(-c2ccc(O)cc2)coc2cc(O)cc(O)c12 [Genistein] | little or no
surprisingly high | surprisingly high | COc1cc(/C=C/C(=O)CC(=O)/C=C/c2ccc(O)c(OC)c2)ccc1O [Curcumin] | –
surprisingly high | – | CC/C=C\CC/C=C/CO [Trans-2,cis-6-nonadienol] | little or no
surprisingly high | surprisingly high | CCCCCCCCCCCCCCCC(=O)OC(CC(=O)O)C[N+](C)(C)C.[Cl-] (racemic) [DL-palmitoylcarnitine chloride] | little or no
surprisingly high | surprisingly high | Oc1ccc(C=Cc2cc(O)cc(O)c2)cc1 [Resveratrol] | –
surprisingly high | – | CC1=CC(=O)c2ccccc2C1=O [Menadione] | little or no
